From patent US20250275987A1, “MODULATORS OF INTRACELLULAR CHLORIDE CONCENTRATION FOR USE IN THE TREATMENT OF COGNITIVE DECLINE” (FONDAZIONE ISTITUTO ITALIANO DI TECNOLOGIA, priority 2022, published 2025)

Key:
[1] = tested on: elderly mice; assay: Object localization (OL) test of spatial memory in elderly mice; format: in vivo; details: 25 mg/kg i.p., vs vehicle, FIG. 3b
From the text: FIG. 3 illustrates the evaluation of the efficacy of furosemide (KCC2 inhibitor) to restore impaired memory in elderly mice. a) Quantification of the discrimination index of the NOR test in young (n=13) and elderly (n=10) mice (two tailed t-test, ** P<0.01). b) Quantification of the discrimination index of the OL test in mice treated with vehicle (young, n=13, elderly, n=7) or furosemide (young, n=11, elderly, n=6) (two-way ANOVA, Tukey post hoc test, * P<0.05).
To evaluate memory capacity in the elderly mice, the novel object recognition (NOR) test was conducted. This test evaluates the long-term object recognition memory by measuring the capacity of the mice to recognize a novel object compared to familiar objects. […] Subsequently, to test the ability of the non-selective KCC2 inhibitor, furosemide, to restore poor memory, the object localization (OL) test was conducted in the presence of the drug. The object localization test evaluates spatial memory by measuring the ability of the mice to recognize the new position of a familiar object. The mice were treated with furosemide (25 mg/kg i.p.) or with the vehicle.

[2] = biological target: T1, KCC2 (Homo sapiens, UniProt Q9H2X9); assay: Thallium influx functional assay (FluxOR Potassium ion channel assay) in HEK293T cells transfected with KCC2; format: cell-based
T1 construct: expressed in transfected cells; host or cells: HEK293T
T1 sequence (Q9H2X9 1-1139): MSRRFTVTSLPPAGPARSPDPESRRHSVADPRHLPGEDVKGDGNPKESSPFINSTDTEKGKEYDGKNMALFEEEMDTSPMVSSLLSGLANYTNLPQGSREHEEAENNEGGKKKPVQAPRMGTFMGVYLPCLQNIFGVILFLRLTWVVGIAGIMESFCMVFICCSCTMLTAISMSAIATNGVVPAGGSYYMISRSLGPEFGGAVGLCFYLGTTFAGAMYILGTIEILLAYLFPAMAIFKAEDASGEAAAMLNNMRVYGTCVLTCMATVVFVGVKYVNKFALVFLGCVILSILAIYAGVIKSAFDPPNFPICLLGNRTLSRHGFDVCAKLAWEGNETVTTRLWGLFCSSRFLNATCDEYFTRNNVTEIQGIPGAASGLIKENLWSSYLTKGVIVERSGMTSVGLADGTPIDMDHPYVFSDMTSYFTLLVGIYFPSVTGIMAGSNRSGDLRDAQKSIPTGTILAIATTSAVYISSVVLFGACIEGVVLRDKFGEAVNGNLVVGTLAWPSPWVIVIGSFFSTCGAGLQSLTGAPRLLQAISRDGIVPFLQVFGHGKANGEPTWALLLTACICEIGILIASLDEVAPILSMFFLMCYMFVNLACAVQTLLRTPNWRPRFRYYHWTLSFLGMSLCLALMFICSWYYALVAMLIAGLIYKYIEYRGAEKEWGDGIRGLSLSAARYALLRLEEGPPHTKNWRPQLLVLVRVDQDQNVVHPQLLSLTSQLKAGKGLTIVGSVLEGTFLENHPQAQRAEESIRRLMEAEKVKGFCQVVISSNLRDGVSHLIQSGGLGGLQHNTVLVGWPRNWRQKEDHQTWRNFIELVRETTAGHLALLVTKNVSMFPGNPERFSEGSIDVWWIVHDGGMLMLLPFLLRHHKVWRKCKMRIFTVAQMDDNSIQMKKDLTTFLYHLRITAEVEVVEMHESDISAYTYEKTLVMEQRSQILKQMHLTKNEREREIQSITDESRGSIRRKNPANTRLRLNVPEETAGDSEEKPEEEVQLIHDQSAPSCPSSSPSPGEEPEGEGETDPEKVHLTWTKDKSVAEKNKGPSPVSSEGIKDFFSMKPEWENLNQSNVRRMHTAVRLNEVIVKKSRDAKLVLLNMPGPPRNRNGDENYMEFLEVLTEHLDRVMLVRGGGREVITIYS
Method: To verify the efficacy of the compounds to inhibit KCC2 in vitro a functional assay was used (FluxOR Potassium ion channel assay, Life Technologies), which measures the influx of thallium ions (replacing potassium) which permeate into the cell through KCC2. The thallium ions inside the cell are then measured using a Thallium sensor, the fluorescence of which increases after binding with thallium. In particular, the HEK293T cells were transfected with KCC2 or with the empty plasmid (mock control cells). After two days the cells were treated with the thallium sensor and in a solution without chlorine ions. After one hour the cells were washed and treated with furosemide and DMSO as negative control, again in a solution without chlorine ions and in the presence of a sodium/potassium pump inhibitor (ouabain). After twenty minutes the plates were placed in the Tecan Spark reader. The inhibitory activity of furosemide, reported in Table 1, was measured monitoring the fluorescence after thallium (TlSO4) and chlorine (NaCl) application.

[3] = tested on: mice C57BL/6J aged >24 months; assay: Open field test after benzodiazepine administration; format: in vivo; details: elderly mice (>24 months), 2 mg/kg in saline, vs elderly vehicle or young mice treated with diazepam
From the text: FIG. 2 illustrates the evaluation of the effect of benzodiazepines in elderly mice which is indicative of a potentiated GABAergic transmission. a) Quantification of the immobility time during the open field test of mice treated with vehicle (young, n=7, elderly, n=6) or diazepam (young, n=7, elderly, n=7) (two-way ANOVA, Tukey post hoc test, *** P<0.001). b) Quantification of the distance travelled during the open field test by mice treated with vehicle (young, n=7, elderly, n=6) or diazepam (young, n=7, elderly, n=7) (two-way ANOVA, Tukey post hoc test, […], *** P<0.001).
In fact, benzodiazepines are positive allosteric modulators of GABAAR. Benzodiazepines are commonly used as anxiolytic drugs, but can produce anxiogenic or highly sedative effects depending on the polarity of GABAergic transmission. To test the reaction of elderly mice to benzodiazepines, mice C57BL/6J aged >24 months and 2-month old controls C57BL/6J were treated with diazepam (2 mg/kg in saline solution) or vehicle (2% DMSO in saline solution). The open field test was then carried out to evaluate locomotor activity and the level of anxiety of the mice tested. […] This is indicative of an over-sedation reaction of the diazepam in the elderly mice, which may reflect the presence of hyper-inhibitory GABAergic transmission. This evidence in accordance with the […] of KCC2 (FIG. 1b).

SMILES: NS(=O)(=O)c1cc(C(=O)O)c(NCc2ccco2)cc1Cl [Furosemide, furosemide]
- spatial memory (discrimination index of the OL test) [1]: significantly restored the poor spatial memory of the elderly mice to the level of the young mice
- % KCC2 inhibition at 10 μM ([2]; 10 μM, HEK293T cells transfected with KCC2, thallium fluorescence): Inactive
- inhibition at 50 µM ([2]; HEK-293T, 50 μM, HEK293T cells transfected with KCC2, thallium fluorescence): 39.8 ± 1.6%
- inhibition at 100 µM ([2]; HEK-293T, 100 μM, HEK293T cells transfected with KCC2, thallium fluorescence): 45.1 ± 6.4%
- IC50 ([2]; KCC2 inhibition in vitro): 455 µM

SMILES: CN1C(=O)CN=C(c2ccccc2)c2cc(Cl)ccc21 [diazepam]
- immobility time during the open field test ([3]; FIG. 2a): significantly higher immobility time
- distance travelled during the open field test ([3]; FIG. 2b): significantly lower distance travelled
